Measured values: patent US11666558B2, “Methods of treating intraocular pressure with activators of Tie-2” (EyePoint Pharmaceuticals, Inc., priority 2015, dated 2023)
Structures can show the parent of a compound that is named as a salt. Where two headings read alike, the source gives them in different places.

Assay: Ocular tissue concentrations (aqueous humor, vitreous humor, iris, retina, choroid, cornea) after topical ocular, subcutaneous and intravitreal administration
Format: in vivo, New Zealand White rabbits
Details: for concentration at 4 h / concentration at 0.5 h / concentration at 1 hr / concentration at 2 hr / concentration at 4 hr / concentration at 0.5 hr / concentration at 2 h / concentration at 1 h / concentration at 6 hr / concentration at 24 h / concentration at 48 h / concentration at 72 h: New Zealand White, rabbit; for concentration at 6 hr / concentration at 24 h / concentration at 48 h / concentration at 72 h: other: intravitreal, 2.5 mg per eye, Group 4 intravitreal 2.5 mg per eye
Description: To measure the concentration of Compound 1 in plasma and ocular tissues following topical ocular, subcutaneous, and intravitreal administration, New Zealand White rabbits were administered Compound 1, and plasma and ocular samples were collected at pre-determined time points. Compound 1 formulations were prepared fresh on each day of dosing.
Ocular tissue samples from both eyes of each animal were collected and weights were recorded. Plasma and ocular tissue sample concentrations of Compound 1 were determined by LC-MS/MS.
New Zealand White rabbits weighing 2.5 to 3.5 kg were used on this study. Rabbits were housed one per cage. Animals were not fasted and only healthy animals with no ocular illness were used. Two rabbits per group were sacrificed at each of four ocular tissue sampling time points for a total of eight rabbits per group.
Animals were anesthetized for ocular (topical) and intravitreal dosing following the 12IA7 IACUC protocol. Each rabbit received a bolus dose of test formulation either via topical ocular administration 3 times daily on Days 1 and 2 (at 0, 6, and 12 hours), and once on Day 3 (at 0 hours) into both eyes; via intravitreal administration into both eyes once on Day 1 (at 0 hours); or via subcutaneous administration 2 times daily on Days 1 and 2 (at 0 and 8 hours) and once daily on Day 3 (at 0 hours). Doses were given within an approximately 1 hour window each day where applicable.
On Day 1, for intravitreal administration, or on Day 3, for topical ocular and subcutaneous administration, at the appropriate ocular tissue collection time points, animals were euthanized and both eyes were enucleated immediately. Following enucleation, each eye was rinsed with phosphate-buffered saline. Ocular tissue samples from both eyes of each animal were collected at predetermined time points and weights were recorded. All the samples were frozen immediately on dry ice, and stored at −60° C. to −80° C. pending bioanalysis.
An LC-MS/MS method was developed for the determination of Compound 1 in rabbit aqueous tissues (plasma, aqueous and vitreous humor) and solid ocular tissue samples. A pre-study standard curve was analyzed to determine the specificity, range, and lower limit of quantitation of the method. Plasma and tissue homogenate study samples were extracted and analyzed. All the samples were treated identically to the standards.
One eight-point standard curve was used in each analytical batch. To be accepted, each batch must have had at least five of eight standards with accuracy within ±20% of nominal, except at the lower limit of quantification (LLOQ), where ±25% was acceptable.
Concentration versus time data is plotted in FIGS. 3-16. All data are expressed as ng/g of the free drug. Samples that were below the limit of quantitation (0.2 ng/mL) were not used in the calculation of averages.

[1] = vitreous humor, read-out: vitreous humor Average Conc.
[2] = vitreous humor, read-out: vitreous humor Conc., individual eyes (OD, OS)

COC(=O)N[C@@H](Cc1ccccc1)C(=O)N[C@@H](Cc1ccc(NS(=O)(=O)O)cc1)c1csc(-c2cccs2)n1 [Compound 1 sodium salt]
concentration at 4 h (aqueous humor, topical, 1.2 mg/eye, Group 1 topical ocular 1.2 mg/eye, 4.0 hr, read-out: aqueous humor Average Conc.): 8.24 ng/g | concentration at 0.5 h (choroid, topical, 1.2 mg/eye, topical ocular 1.2 mg/eye (~0.7 mg/kg/dose), read-out: Choroid tissue Average): 57.7 ng/g | concentration at 1 hr (choroid, topical, 1.2 mg/eye, topical ocular 1.2 mg/eye (~0.7 mg/kg/dose), 1 hr, read-out: Choroid tissue Average): 32.2 ng/g | concentration at 2 hr (choroid, topical, 1.2 mg/eye, topical ocular 1.2 mg/eye (~0.7 mg/kg/dose), 2 hr, read-out: Choroid tissue Average): 59.2 ng/g | concentration at 4 hr (choroid, topical, 1.2 mg/eye, topical ocular 1.2 mg/eye (~0.7 mg/kg/dose), 4 hr, read-out: Choroid tissue Average): 165 ng/g | concentration at 0.5 hr (cornea, topical, 1.2 mg/eye, topical ocular 1.2 mg/eye (~0.7 mg/kg/dose), read-out: Cornea tissue Average): 1020 ng/g | concentration at 0.5 hr (cornea, topical, 1.2 mg/eye, topical ocular 1.2 mg/eye (~0.7 mg/kg/dose), read-out: Cornea tissue Conc., individual eyes (OD, OS)): 427 ng/g | concentration at 1 hr (cornea, topical, 1.2 mg/eye, topical ocular 1.2 mg/eye (~0.7 mg/kg/dose), 1 hr, read-out: Cornea tissue Average): 548 ng/g | concentration at 2 hr (cornea, topical, 1.2 mg/eye, topical ocular 1.2 mg/eye (~0.7 mg/kg/dose), 2 hr, read-out: Cornea tissue Average): 1070 ng/g | concentration at 4 hr (cornea, topical, 1.2 mg/eye, topical ocular 1.2 mg/eye (~0.7 mg/kg/dose), 4 hr, read-out: Cornea tissue Average): 534 ng/g | concentration at 0.5 hr (iris homogenate, topical, 1.2 mg/eye, topical ocular 1.2 mg/eye (~0.7 mg/kg/dose), read-out: Iris homogenate Conc., individual eyes (OD, OS)): 2.55 ng/mL | concentration at 0.5 hr (iris, topical, 1.2 mg/eye, topical ocular 1.2 mg/eye (~0.7 mg/kg/dose), read-out: Iris tissue Average): 24.3 ng/g | concentration at 0.5 hr (iris, topical, 1.2 mg/eye, topical ocular 1.2 mg/eye (~0.7 mg/kg/dose), read-out: Iris tissue Conc., individual eyes (OD, OS)): 17.8 ng/g | concentration at 1 hr (iris, topical, 1.2 mg/eye, topical ocular 1.2 mg/eye (~0.7 mg/kg/dose), 1 hr, read-out: Iris tissue Average): 55.2 ng/g | concentration at 2 h (iris, topical, 1.2 mg/eye, topical ocular 1.2 mg/eye (~0.7 mg/kg/dose), 2 hr, read-out: Iris tissue Average): 51.9 ng/g | concentration at 4 h (iris, topical, 1.2 mg/eye, topical ocular 1.2 mg/eye (~0.7 mg/kg/dose), 4 hr, read-out: Iris tissue Average): 261 ng/g | concentration at 4 h (iris, topical, 1.2 mg/eye, topical ocular 1.2 mg/eye (~0.7 mg/kg/dose), 4 hr, read-out: Iris tissue Conc., individual eyes (OD, OS)): 30.7 ng/g | concentration at 0.5 h (retina, topical, 1.2 mg/eye, topical ocular 1.2 mg/eye (~0.7 mg/kg/dose), read-out: Retina tissue Average): 25.6 ng/g | concentration at 1 h (retina, topical, 1.2 mg/eye, topical ocular 1.2 mg/eye (~0.7 mg/kg/dose), 1 hr, read-out: Retina tissue Average): 59.2 ng/g | concentration at 2 h (retina, topical, 1.2 mg/eye, topical ocular 1.2 mg/eye (~0.7 mg/kg/dose), 2 hr, read-out: Retina tissue Average): 48.3 ng/g | concentration at 4 h (retina, topical, 1.2 mg/eye, topical ocular 1.2 mg/eye (~0.7 mg/kg/dose), 4 hr, read-out: Retina tissue Average): 405 ng/g | concentration at 6 hr [1]: 988000 ng/g | concentration at 6 hr [2]: 592000 ng/mL | concentration at 24 h [1]: 350000 ng/g | concentration at 24 h [2]: 438000 ng/mL | concentration at 48 h [1]: 82000 ng/g | concentration at 48 h [2]: 85200 ng/mL | concentration at 72 h [1]: 13400 ng/g | concentration at 72 h [2]: 14500 ng/mL | concentration at 0.5 hr (vitreous humor, subcutaneous, 5 mg/kg, Group 2 subcutaneous 5 mg/kg, read-out: vitreous humor Average Conc.): 0.83 ng/g | concentration at 0.5 hr (vitreous humor, subcutaneous, 5 mg/kg, Group 2 subcutaneous 5 mg/kg, read-out: vitreous humor Conc., individual eyes (OD, OS)): 0.77 ng/mL | concentration at 1 hr (vitreous humor, subcutaneous, 5 mg/kg, Group 2 subcutaneous 5 mg/kg, 1.0 hr, read-out: vitreous humor Average Conc.): 0.45 ng/g | concentration at 0.5 h (vitreous humor, topical, 1.2 mg/eye, Group 1 topical ocular 1.2 mg/eye, read-out: vitreous humor Average Conc.): 0.61 ng/g | concentration at 0.5 h (vitreous humor, topical, 1.2 mg/eye, Group 1 topical ocular 1.2 mg/eye, read-out: vitreous humor Conc., individual eyes (OD, OS)): 0.528 ng/mL | concentration at 1 h (vitreous humor, topical, 1.2 mg/eye, Group 1 topical ocular 1.2 mg/eye, 1.0 hr, read-out: vitreous humor Average Conc.): 2.09 ng/g | concentration at 2 hr (vitreous humor, topical, 1.2 mg/eye, Group 1 topical ocular 1.2 mg/eye, 2.0 hr, read-out: vitreous humor Average Conc.): 3.33 ng/g | concentration at 2 hr (vitreous humor, topical, 1.2 mg/eye, Group 1 topical ocular 1.2 mg/eye, 2.0 hr, read-out: vitreous humor Conc., individual eyes (OD, OS)): 1.14 ng/mL | concentration at 4 hr (vitreous humor, topical, 1.2 mg/eye, Group 1 topical ocular 1.2 mg/eye, 4.0 hr, read-out: vitreous humor Average Conc.): 4.01 ng/g | aqueous humor concentrations (topical ocular administration, over four hours (FIG. 6)): below 50 ng/g
